Data from PMC10770036, “Novel dual inhibitors of PARP and HDAC induce intratumoral STING-mediated antitumor immunity in triple-negative breast cancer” (Cell Death & Disease, 2024).

Key:
[1] = test system: MDA-MB-436, MDA-MB-231, and MDA-MB-468 cells; assay: Colony formation assay; type: cell-based, human; conditions: approximately 14 days
Experimental: MDA-MB-231, MDA-MB-436 and MDA-MB-468 cells were seeded at a density of 2,000 cells in 6-well plates and cultured overnight. […] The cells were fixed with 4% paraformaldehyde (Merck) for 1 h at room temperature and stained with 0.1% crystal violet (Beyotime Biotechnology) for 30 min. Under an inverted phase contrast microscope (Leica Microsystems, Heidelberg, Germany), cell colonies were photographed at 5× magnification. All these analyses were performed at least three times.

p-H2A.X = assay: Western blot of H2A.X phosphorylation (DNA damage) in TNBC cells; type: cell-based, human; conditions: TNBC cell lines, 48 h
Experimental: (§1) Western blot analysis was performed as previously described, and all western blot analyses were performed at least three times.
(§2) Western blot analysis was performed as previously described. Briefly, whole cell or tissue lysates were prepared using ice-cold Nonidet P-40 buffer mixed with protease and phosphatase inhibitors (Roche, IN, USA) and centrifuged at 14,000 × g at 4 °C for 10 min. The protein lysates were fractionated by sodium dodecyl sulfate–polyacrylamide gel electrophoresis (SDS–PAGE) and transferred to polyvinylidene fluoride (PVDF) membranes (Merck, Darmstadt, Germany). Membranes were incubated in 1× TBST buffer containing 5% nonfat powdered milk at room temperature for 2 h. The indicated primary antibody was incubated with PVDF membranes, followed by a washing step using 1× TBST and a secondary antibody conjugated to HRP. Signal detection was carried out using the Western ECL Substrate kit (Bio-Rad, Hercules, CA, USA). […]

MCF-10A cells = assay: MTT cell viability assay, MCF-10A; conditions: Homo sapiens, 72 h, read-out: IC50 MCF-10A
Experimental: The viability assay was measured by a 3-(4,5-dimethylthiazol-2-yl)−2,5-diphenyltetrazolium bromide (MTT) assay.
In brief, cells were seeded at a density of 6,000 cells in 96-well plates and cultured overnight. […] After aspiration of the medium, the formazan crystals were dissolved in 100 μL of DMSO. The absorbance at 490 nm was measured using a microplate reader (BioTek). All these analyses were performed at least three times.

PARP2 = target: T1, PARP2 (Homo sapiens, UniProt Q9UGN5); assay: PARP2 enzymatic inhibition assay (PARP2 Colorimetric Assay Kit); type: biochemical
T1 construct: purchased BPS Bioscience 80581
T1 sequence (Q9UGN5 whole entry): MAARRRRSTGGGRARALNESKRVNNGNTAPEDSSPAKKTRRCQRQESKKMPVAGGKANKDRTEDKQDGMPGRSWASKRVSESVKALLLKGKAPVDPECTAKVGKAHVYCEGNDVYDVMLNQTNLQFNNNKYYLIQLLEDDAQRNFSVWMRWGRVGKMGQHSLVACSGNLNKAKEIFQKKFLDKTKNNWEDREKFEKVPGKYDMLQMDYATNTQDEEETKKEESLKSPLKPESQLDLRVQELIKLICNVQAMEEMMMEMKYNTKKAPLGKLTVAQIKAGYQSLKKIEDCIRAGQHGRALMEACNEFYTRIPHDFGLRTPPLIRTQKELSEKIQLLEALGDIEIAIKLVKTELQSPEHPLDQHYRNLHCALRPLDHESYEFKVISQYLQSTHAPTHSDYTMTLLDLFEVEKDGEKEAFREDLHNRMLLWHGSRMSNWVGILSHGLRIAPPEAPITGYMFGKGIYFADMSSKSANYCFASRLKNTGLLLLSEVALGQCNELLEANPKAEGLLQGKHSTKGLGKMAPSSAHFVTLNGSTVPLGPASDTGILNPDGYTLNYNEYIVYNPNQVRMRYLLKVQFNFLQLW
Experimental: Briefly, the 1× histone mixture was added to each well and incubated overnight at 4 °C. Each well was washed three times with 200 µL 1× TBST buffer and filled with 200 µL Blocking buffer at room temperature for 90 min. Then, each well was filled with 25 µL of PARP master mixture (5 μL activated DNA + 2.5 μL 10× PARP Assay mixture + 2.5 μL 10× PARP buffer + 15 μL distilled water). Next, 5 µL of the compound of different concentrations was added to each well, and PARP enzyme was added and incubated at room temperature for 1 h. Next, streptavidin HRP solution was added and incubated at room temperature for 30 min. After adding 100 µL of colorimetric HRP substrate to each well, the plate was incubated until a blue color developed in the positive well, which contained PARP enzyme without inhibitors. The reaction was then quenched with 2 M sulfuric acid, and absorbance at 450 nm was measured using a microplate reader (BioTek, Winooski, VT, USA). After calculating the inhibition rate, the IC50 value was determined.

recombinant HDAC1 = target: T2, recombinant HDAC1 (Homo sapiens, UniProt Q13547); assay: HDAC1 inhibition assay (Ac-peptide-AMC fluorescence); type: biochemical
T2 construct: purchased Active Motif
T2 sequence (Q13547 whole entry): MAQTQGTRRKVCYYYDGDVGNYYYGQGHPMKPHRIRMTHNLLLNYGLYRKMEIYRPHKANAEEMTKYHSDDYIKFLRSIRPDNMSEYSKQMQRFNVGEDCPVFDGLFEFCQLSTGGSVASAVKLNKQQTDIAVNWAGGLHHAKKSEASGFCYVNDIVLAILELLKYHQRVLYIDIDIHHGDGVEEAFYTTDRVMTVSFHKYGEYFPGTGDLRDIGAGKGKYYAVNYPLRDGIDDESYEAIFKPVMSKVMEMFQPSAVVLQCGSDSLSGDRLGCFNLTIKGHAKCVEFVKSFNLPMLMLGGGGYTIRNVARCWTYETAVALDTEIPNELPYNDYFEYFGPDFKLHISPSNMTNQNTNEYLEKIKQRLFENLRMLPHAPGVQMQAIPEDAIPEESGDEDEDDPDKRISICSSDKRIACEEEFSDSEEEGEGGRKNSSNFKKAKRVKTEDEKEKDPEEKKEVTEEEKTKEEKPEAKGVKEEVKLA
Experimental: The in vitro HDAC inhibition assays were carried out by Sundia MediTech Co. Ltd. in Shanghai, China. […] Reactions were stopped with trypsin, and the samples were incubated for another 90 min at 37 °C. […] IC50 values were obtained using GraphPad Prism software.

[2] = test system: cGAS–STING signaling pathway; assay: Western blot of cGAS–STING pathway activation; type: cell-based, human; conditions: MDA-MB-436 cells, 48 h
Experimental: as §1, §2

Structure (SMILES) | colony formation of TNBC cells [1] | p-H2A.X levels (DNA DSBs) (p-H2A.X) | IC50 (MCF-10A cells) [nM] | IC50 (PARP2) [nM] | IC50 (recombinant HDAC1) [nM] | activation of the cGAS–STING signaling pathway [2]
Nc1cc(F)ccc1NC(=O)/C=C/c1ccc(CN2CCN(C(=O)c3cc(Cc4n[nH]c(=O)c5ccccc45)ccc3F)CC2)cc1 [Compound B102] | reduction in colony formation | increased p-H2A.X (S136) levels | 13700 ± 230 | 2.13 | 1690 | –
Nc1cc(F)ccc1NC(=O)CCc1ccc(CN2CCN(C(=O)c3cc(Cc4n[nH]c(=O)c5ccccc45)ccc3F)CC2)cc1 [Compound B302] | reduction in colony formation | increased p-H2A.X (S136) levels | 36800 ± 6590 | 57 | > 10000 | concentration-dependent activation
